Assay results published in patent publication US20070021351A1, “Liver/plasma concentration ratio for dosing hepatitis C virus protease inhibitor” (Schering Corporation, priority 2005, published 2007).

How the values were obtained:
[1] = tested on: HCV polyprotein processing; assay: Kinetic studies following polyprotein processing intermediates; assay type: cell-based
[2] = Example 1: Phase 1 rising-single-dose pharmacokinetic study in healthy adult subjects; assay type: in vivo, human; settings: for DN AUC(I): dose-normalized (to 50 mg); for Tmax: median
Description: A Phase 1, randomized, third-party-blind (within dose level), placebo-controlled, rising-single-dose study of compounds of Formulae I-XXVI was conducted in healthy adult subjects.
Nine subjects in each group received either compound of Formula Ia (n=6) or placebo (n=3). Those subjects randomized to active compound received one of the following doses of compound of Formula Ia: 50, 100, 200, 400, 600, or 800 mg.
On Day 1, at least 10 hours prior to compound administration, an overnight fast was maintained until 4 hours following treatment administration, after which lunch was served. During the fasting period, no food or fluid (except noncarbonated water) was permitted; furthermore, drinking water was prohibited from 2 hours predose to 2 hours postdose, with the exception of the approximately 240 mL administered with the treatments.
Blood samples (7 mL each) for the determination of compound of Formula Ia concentrations were collected immediately prior to dosing (0 hour), and at 0.25, 0.5, 0.75, 1, 1.5, 2, 3, 4, 5, 6, 8, 10, 12, 18, 24, 36, 48, 72, and 144 hours postdose. The blood samples were collected into tubes containing EDTA. The samples were separated by centrifugation at 4° C. for 15 minutes at 1500 g to obtain the plasma, and the plasma samples frozen at −20° C. until assayed.
Plasma concentrations of compound of Formula Ia were determined using a validated liquid chromatography tandem mass spectrometry (LC-MS/MS) method. The assay lower limit of quantitation (LLOQ) was 0.50 ng/mL, and the method was validated over the concentration range of 0.50 to 1000 ng/mL.
The mean and percent coefficients of variation (% CV) were calculated for the plasma concentrations of compound of Formula Ia at each time point. Concentration values less than the assay LLOQ were reported as and set to zero in the calculations and tables. The plasma concentration-time data for compound of Formula Ia were subjected to pharmacokinetic analysis by noncompartmental methods using WinNonlin software. Nominal sampling times were used for pharmacokinetic analysis.
For each subject, the following compound of Formula Ia pharmacokinetic parameters were determined: • Cmax Maximum observed plasma concentration • Tmax Time of maximum observed plasma concentration • tf Time of final quantifiable sample • AUC(tf) Area under the plasma concentration-time curve from time 0 to tf • AUC(I) Area under the plasma concentration-time curve from time 0 to infinity [AUC(I)=AUC(tf)+C(tf)estimated/k, where k and C(tf)estimated are terminal elimination rate constant and estimated concentration at final quantifiable sample, respectively] • t½ Terminal-phase half-life (t½=In2/k) • CL/F Apparent total body clearance (CL/F=Dose/AUC[I]) • Vd/F Apparent volume of distribution (Vd/F=CL/F*(t1/2/0.693))
Dose-adjusted (to 50 mg) Cmax, AUC(I), and AUC(tf) values were also calculated. Cmax, Tmax, and tf were the observed values. The terminal phase rate constant (k) was calculated as the negative of the slope of the log-linear terminal portion of the plasma concentration-time curve using linear regression (at least three time points). The number of points needed to determine the terminal phase rate constant was selected by WinNonlin software.
Summary statistics, including means, standard deviations, and coefficients of variation (CV) expressed as a percent, were computed for the single-dose plasma compound of Formula Ia concentration data at each sampling time point and for the derived pharmacokinetic parameters for each dose level using a standard program based on SAS/STAT (Release 6.12; SAS Institute Inc., North Carolina).
The log-transformed dose-adjusted (to 50 mg) Cmax and AUC values of compound of Formula Ia were statistically analyzed using an analysis of variance (ANOVA) model. The effect due to treatment (dose) was extracted. Ninety-five percent confidence intervals (CIs) for the means at each dose level, based on the nontransformed data, were provided. […]

[3] = single oral 600 mg, fasted healthy adults, mean, n=6

## CC(C)(C)NC(=O)N[C@H](C(=O)N1C[C@H]2[C@@H]([C@H]1C(=O)NC(CC1CCC1)C(=O)C(N)=O)C2(C)C)C(C)(C)C (mixture of isomers) [Formula Ia, (1R,5S)-N-[3-Amino-1-(Cyclobutylmethyl)-2,3-Dioxopropyl]-3-[2(S)-[[[(1,1-Dimethylethyl)Amino]Carbonyl]Amino]-3,3-Dimethyl-1-Oxobutyl]-6,6-Dimethyl-3-Azabicyclo[3.1.0]Hexan-2(S)-Carboxamide]
[1]
  time until effects become evident: one
[2]; single oral 50 mg, mean, n=6
  DN AUC(I): 181 ng·h/mL
[2]; single oral 100 mg, mean, n=6
  DN AUC(I): 172 ng·h/mL
[2]; single oral 200 mg, mean, n=6
  DN AUC(I): 212 ng·h/mL
[2]; single oral 400 mg, mean, n=6
  DN AUC(I): 195 ng·h/mL
[2]; single oral 600 mg, mean, n=6
  DN AUC(I): 180 ng·h/mL
[2]; single oral 800 mg, mean, n=6
  DN AUC(I): 145 ng·h/mL
[2]; single oral 50 mg, fasted healthy adults, mean, n=6
  AUC(I): 181 ng·h/mL
[2]; single oral 50 mg, fasted healthy adults, n=6
  Tmax: 1.50 h
[2]; single oral 400 mg, fasted healthy adults, mean, n=6
  Cmax: 445 ng/mL
[2]; single oral 400 mg, fasted healthy adults, n=6
  Tmax: 1.75 h
[2]; [3]
  AUC(I): 2158 ng·h/mL
  t½: 10.2 h
[2]; single oral 600 mg, fasted healthy adults, n=6
  Tmax: 2.25 h
[2]; single oral 800 mg, fasted healthy adults, mean, n=6
  AUC(I): 2320 ng·h/mL
[2]; single oral doses 50-800 mg
  dose dependence of Cmax and AUC: increased in a dose-related manner up to the 600 mg dose
